#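 Compound exposure: 48 hours, 5 concentrations, 96-well plates. The concentration for 50% growth inhibition is given as GI50. TGI is the concentration that stops growth completely.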
# How the values were obtained:
# Test in all cases: NCI-60 cell line screen, 48 h
# DLD-1 colon = system: DLD-1 colon
# HOP-92 NSCLC = system: HOP-92 NSCLC
# LXFL 529 NSCLC = system: LXFL 529 NSCLC
# KM20L2 colon = system: KM20L2 colon
# DMS 114 small cell lung = system: DMS 114 small cell lung
# HCT-116 colon = system: HCT-116 colon
# ACHN renal = system: ACHN renal
# SF-268 CNS = system: SF-268 CNS
# SK-MEL-2 melanoma = system: SK-MEL-2 melanoma
# NCI-H460 lung = system: NCI-H460 lung
# T-47D breast = system: T-47D breast
# PC-3 prostate = system: PC-3 prostate
SMILES,TGI (DLD-1 colon) [µM],TGI (HOP-92 NSCLC),TGI (LXFL 529 NSCLC) [µM],TGI (KM20L2 colon) [µM],TGI (DMS 114 small cell lung) [µM],TGI (HCT-116 colon),TGI (ACHN renal),TGI (SF-268 CNS),TGI (SK-MEL-2 melanoma),TGI (NCI-H460 lung),GI50 (HOP-92 NSCLC),GI50 (NCI-H460 lung),GI50 (SK-MEL-2 melanoma),GI50 (T-47D breast),TGI (T-47D breast),GI50 (HCT-116 colon),GI50 (ACHN renal),GI50 (SF-268 CNS),GI50 (PC-3 prostate),TGI (PC-3 prostate)
O=C1c2ccccc2N2OC3(N4CCCC4)CCCCC3C12c1ccccc1 (configuration not stated),46.3,29.7 µM,27.7,> 100,28.4,27.6 µM,43.8 µM,33.7 µM,,,,,,,,,,,,
Cc1ccccc1-n1c(N)c(-c2nc3ccccc3[nH]2)sc1=S,64.6,,50.4,,59,,> 100 µM,69.6 µM,48.3 µM,,,,,,,,,,,
CC(=O)/C(=C\c1ccccc1O)C(=O)Nc1ccccc1C,79.1,44.9 µM,98.6,,> 100,> 100 µM,40.9 µM,> 100 µM,46.9 µM,> 100 µM,,,,,,,,,,
ClC1=C(Cl)C(Cl)(Cl)c2c3c(c4c(c21)C(Cl)(Cl)C(Cl)=C4Cl)C(Cl)(Cl)C(Cl)=C3Cl,,,> 100,> 100,> 100,> 100 µM,> 100 µM,> 100 µM,,> 100 µM,,,,,,,,,,
CN1CCN(CCCCCN=c2cc3c(=O)n(CCCCCN4CCN(C)CC4)c(=O)c4c(NCCCCCN5CCN(C)CC5)cc5c(O)n(CCCCCN6CCN(C)CC6)c(=O)c2c5c4-3)CC1,,7.39 µM,,,,17.3 µM,> 100 µM,6.09 µM,7.43 µM,10.2 µM,1.84 µM,3.06 µM,2.69 µM,3.59 µM,25.4 µM,3.31 µM,43.3 µM,2.07 µM,3.32 µM,19.4 µM
COc1cc(/C=C/c2ccc3c(Br)cc(Br)c(O)c3n2)ccc1O,,20.8 µM,,,,3.7 µM,12.1 µM,14.8 µM,22.2 µM,11.5 µM,4.77 µM,0.446 µM,6.11 µM,2.13 µM,14.7 µM,0.532 µM,0.891 µM,1.31 µM,1.26 µM,15.1 µM
COc1cc(-c2nn(-c3cccc(NC(=O)CCN4CCN(Cc5ccccc5)CC4)c3)cc2-c2ccncc2)ccc1Cl,,4.44 µM,,,,1.75 µM,12.8 µM,3.84 µM,4.14 µM,1.46 µM,0.79 µM,0.38 µM,1.39 µM,2.76 µM,27.6 µM,0.406 µM,1.2 µM,1.05 µM,0.709 µM,11.6 µM
O=Cc1ccc2c(c1I)OCO2,> 100,,,> 100,,> 100 µM,> 100 µM,,> 100 µM,> 100 µM,,,,,,,,,,
C=CCc1cc(Nc2c3ccc(Cl)cc3nc3ccc(OC)cc23)cc(CN(CC)CC)c1O,,4.04 µM,,,,1.97 µM,13.1 µM,16 µM,4.93 µM,2.69 µM,1.11 µM,0.525 µM,1.9 µM,0.499 µM,4.28 µM,0.365 µM,2.12 µM,2.9 µM,1.04 µM,4.73 µM
COc1ccc(Nc2ccnc(N3CCN(c4ccnc5cc(Cl)ccc45)CC3)n2)cc1,,4.5 µM,,,,3.27 µM,> 24.5 µM,> 100 µM,3.27 µM,4.68 µM,0.32 µM,0.837 µM,1.03 µM,1.39 µM,6.99 µM,0.485 µM,0.955 µM,2.31 µM,0.705 µM,7.25 µM
C[C@@H]1Cc2cc(O)ccc2[C@H]2CC[C@]3(C)/C(=C/COCCN(C)C)CC[C@H]3[C@H]12 (tested in a mixture with another compound),,0.872 µM,,,,0.78 µM,0.201 µM,0.235 µM,0.845 µM,0.208 µM,0.216 µM,0.0704 µM,0.323 µM,0.122 µM,0.679 µM,0.245 µM,0.0429 µM,0.111 µM,0.233 µM,1.3 µM
N/C(=N\OC(=O)c1ccccc1)C(Cc1ccccc1)C(=O)NOC(=O)c1ccccc1 (configuration not stated),,3.63 µM,,,,3.38 µM,3.58 µM,3.33 µM,4.17 µM,3.71 µM,1.84 µM,1.76 µM,2.16 µM,3.18 µM,15.8 µM,1.66 µM,1.66 µM,1.64 µM,2.62 µM,7.2 µM
O=C1C(OCCOc2ccccc2)=C(OCCOc2ccccc2)C(=O)c2ccccc21,,> 100 µM,,,,> 100 µM,> 100 µM,> 100 µM,> 100 µM,10.5 µM,1.21 µM,3.05 µM,18.6 µM,> 100 µM,> 100 µM,3.13 µM,5.09 µM,6.31 µM,17.2 µM,> 100 µM
C=C1[C@@H](O)O[C@H]2[C@H]1C[C@H](OC(C)=O)[C@]13C(=O)O[C@H]4C[C@](C)(O)[C@H]([C@H]41)C31C=C(C)[C@]2(O)O1,,> 100 µM,,,,38.2 µM,> 100 µM,> 100 µM,59.7 µM,96.9 µM,> 100 µM,32.5 µM,18.6 µM,> 100 µM,> 100 µM,19.8 µM,49.8 µM,34.5 µM,53.3 µM,> 100 µM
Cc1[nH]nc(-c2ccon2)c1N=O,,29 µM,,,,56.8 µM,28.4 µM,42.8 µM,> 100 µM,> 100 µM,,,,,60.5 µM,,,,,70.3 µM
CCOC(=O)c1cc2c(cc1Cl)SC(=Nc1ccccc1)N(S(=O)(=O)c1ccc(Br)s1)S2(=O)=O,,33.6 µM,,,,30.8 µM,27.5 µM,46.5 µM,43.3 µM,51.1 µM,10.9 µM,19.4 µM,15.8 µM,15.6 µM,53.9 µM,14.8 µM,14.4 µM,19.2 µM,14.5 µM,32.1 µM
CCOC(=O)C1Nc2ccccc2[C@H]2OCC[C@@H]12 (some centres not stated),> 100,,,> 100,,> 100 µM,> 100 µM,> 100 µM,> 100 µM,> 100 µM,,,,,,,,,,

SMILES,TGI (DLD-1 colon) [µM],TGI (HOP-92 NSCLC),TGI (LXFL 529 NSCLC) [µM],TGI (KM20L2 colon) [µM],TGI (DMS 114 small cell lung) [µM],TGI (HCT-116 colon),TGI (ACHN renal),TGI (SF-268 CNS),TGI (SK-MEL-2 melanoma),TGI (NCI-H460 lung),GI50 (HOP-92 NSCLC),GI50 (NCI-H460 lung),GI50 (SK-MEL-2 melanoma),GI50 (T-47D breast),TGI (T-47D breast),GI50 (HCT-116 colon),GI50 (ACHN renal),GI50 (SF-268 CNS),GI50 (PC-3 prostate),TGI (PC-3 prostate)
COC(=O)c1cc(-c2ccc(OC)c(OC)c2)[nH]c1N/N=C/c1c(Cl)cccc1Cl,,5.06 µM,,,,2.11 µM,13.2 µM,6.27 µM,7.14 µM,1.85 µM,0.944 µM,0.379 µM,0.832 µM,3.99 µM,92.5 µM,0.396 µM,1.18 µM,0.705 µM,0.538 µM,
COc1cc2ncc3c(nc4sccn43)c2cc1OC,,39 µM,,,,78.2 µM,26 µM,> 100 µM,> 100 µM,> 100 µM,15.8 µM,13.6 µM,31.1 µM,29.2 µM,> 100 µM,13.7 µM,10.2 µM,> 100 µM,47.9 µM,> 100 µM
COc1ccc2c(c1)C(=O)c1c-2c(OCCN(C)C)nc2ccccc12,,81.8 µM,,,,10.8 µM,5.47 µM,10.7 µM,25.7 µM,4.33 µM,8.05 µM,1.15 µM,12.2 µM,4.05 µM,18.3 µM,0.768 µM,1.62 µM,2.34 µM,4.99 µM,21.4 µM
O=C(NNS(=O)(=O)c1ccc(Cl)cc1Cl)c1cccnc1Nc1ccc(Cl)cc1,,40.7 µM,,,,28.8 µM,93.5 µM,> 100 µM,42.5 µM,> 100 µM,14.6 µM,35.7 µM,18.6 µM,10.8 µM,50.7 µM,15.5 µM,29.6 µM,36.5 µM,23.4 µM,80.4 µM
CNNC(=NS(=O)(=O)c1cc(C#N)c(NNC)cc1S)NNC,,> 10 µM,,,,> 10 µM,> 10 µM,> 10 µM,> 10 µM,> 10 µM,,,,,> 10 µM,,,,,> 10 µM
C/C(=N\O)c1cccc(Nc2cc(-n3ccnc3)c3ccccc3n2)c1,,92.1 µM,,,,26.8 µM,19.4 µM,> 100 µM,31.6 µM,> 100 µM,30.2 µM,> 100 µM,16.4 µM,9.32 µM,35.8 µM,13.9 µM,7.31 µM,> 100 µM,24.8 µM,76.6 µM
COc1cccc(Oc2ccccc2NC(=O)CNC(=O)c2cccc3ccccc23)c1,,14.9 µM,,,,3.77 µM,> 25 µM,> 25 µM,> 25 µM,4.53 µM,0.202 µM,0.298 µM,0.181 µM,0.138 µM,17.6 µM,0.0962 µM,0.398 µM,0.547 µM,0.284 µM,> 25 µM
Cc1cc(C)c(C2CNCc3cc4c(cc32)CNCC4c2c(C)cc(C)cc2C)c(C)c1 (configuration not stated),,24.9 µg/mL,,,,6.14 µg/mL,13.4 µg/mL,9.96 µg/mL,7.4 µg/mL,6.91 µg/mL,11.8 µg/mL,2.53 µg/mL,2.92 µg/mL,2.68 µg/mL,7.65 µg/mL,2.38 µg/mL,3.76 µg/mL,3.17 µg/mL,5.67 µg/mL,15.6 µg/mL
COc1ccc(OC(=O)CC2Cc3cc(OC)c(OC)c(OC)c3-c3ccc(SC)c(=O)cc32)cc1 (configuration not stated),> 34.6,9.05 µM,11.3,,5.52,11.2 µM,> 57.7 µM,> 100 µM,59 µM,4.99 µM,,,,,,,,,,
CC(=O)O[C@@H]1C[C@@]2(C)[C@@H]3CC=C4[C@@H](C[C@H](O)C(=O)C4(C)C)[C@]3(C)C(=O)C[C@]2(C)[C@H]1[C@@](C)(O)C(=O)/C=C/C(C)(C)OC(C)=O,,6.98 µM,,,,> 72.9 µM,3.44 µM,> 41.9 µM,> 25.4 µM,16.3 µM,,,,,> 67.8 µM,,,,,> 47 µM
CCc1c(C)nc2sc3c(N)ncnc3c2c1C,,> 25 µM,,,,> 25 µM,> 25 µM,> 25 µM,> 25 µM,> 25 µM,> 25 µM,> 25 µM,> 25 µM,> 25 µM,> 25 µM,> 25 µM,> 25 µM,> 25 µM,> 25 µM,> 25 µM
Oc1c(-c2cc(C(F)(F)F)[nH]n2)cc(Cl)c(OCc2ccc(Cl)cc2)c1-c1ccc(Cl)c(C(F)(F)F)c1,,0.542 µM,,,,0.705 µM,4.86 µM,4.14 µM,2.35 µM,2.57 µM,0.111 µM,0.361 µM,0.36 µM,0.147 µM,1.53 µM,0.159 µM,0.593 µM,0.18 µM,0.171 µM,5.09 µM
O=C(NCCNCCO)c1cccc2ccc(-c3ccccc3)nc12,19.5,11.7 µM,,,19.8,11.8 µM,5.65 µM,19 µM,20.2 µM,11.6 µM,,,,,,,,,,
Cn1ccnc1Oc1ccc(Cl)cc1,,24.4 µM,,,,24.3 µM,25.4 µM,99.4 µM,39.5 µM,> 100 µM,,,,,14.3 µM,,,,,34.2 µM
COc1cc2c(cc1F)C(c1ccccc1Cl)=Nc1c(n[nH]c1C)N2,,13.5 µM,,,,18.4 µM,10.2 µM,11.7 µM,17.3 µM,26.5 µM,1.34 µM,0.498 µM,1.08 µM,1.59 µM,26.4 µM,0.639 µM,1.45 µM,1.14 µM,12.3 µM,> 50.1 µM
Cc1ccc(C2C3Cc4ccccc4C3=NN2c2ccc(S(=O)(=O)/N=c3\scc(-c4ccccc4)n3-c3ccccc3)cc2)cc1 (configuration not stated),,41.7 µM,,,,> 100 µM,50.3 µM,42 µM,52.6 µM,45.1 µM,18.8 µM,18.1 µM,21.9 µM,35.5 µM,> 100 µM,18.6 µM,21.6 µM,16.7 µM,21.3 µM,53.2 µM
